Measurements: patent publication US6440903B1, “Substituted 2,4-diamino-1,3,5-triazines as herbicides” (Bayer Aktiengesellschaft, priority 1996, dated 2002)

Experiments:
Format in all cases: in vivo
[1] = system: weeds; test: Post-emergence test (summary in text); conditions: result in words
Procedure: Solvent: 5 parts by weight of acetone
Emulsifier: 1 part by weight of alkylaryl polyglycol ether
To produce a suitable preparation of active compound, 1 part by weight of active compound is mixed with the stated amount of solvent, the stated amount of emulsifier is added and the concentrate is diluted with water to the desired concentration.
Test plants which have a height of 5-15 cm are sprayed with the preparation of active compound such that the particular amounts of active compounds desired are applied per unit area. The concentration of the spray liquor is chosen so that the particular amounts of active compound desired are applied in 1000 l of water/ha.
After three weeks, the degree of damage to the plants is scored visually in % damage in comparison to the untreated control.
0%=no effect (like untreated control)

[2] = system: Amaranthus; test: Post-emergence test; conditions: Amaranthus, 504 h, greenhouse, scored after three weeks, read-out: % damage, Amaranthus; for pest or weed control at 250 g/ha: 250 g of ai./ha
Procedure: (§1) Post-emergence Test Solvent: 5 parts by weight of acetone Emulsifier: 1 part by weight of alkylaryl polyglycol ether To produce a suitable preparation of active compound, 1 part by weight of active compound is mixed with the stated amount of solvent, the stated amount of emulsifier is added and the concentrate is diluted with water to the desired concentration. Test plants which have a height of 5-15 cm are sprayed with the preparation of active compound such that the particular amounts of active compounds desired are applied per unit area. The concentration of the spray liquor is chosen so that the particular amounts of active compound desired are applied in 1000 l of water/ha. After three weeks, the degree of damage to the plants is scored visually in % damage in comparison to the untreated control. The Figures Denote: 0%=no effect (like untreated control) 100%=total destruction

[3] = system: Chenopodium; test: Post-emergence test; conditions: Chenopodium, 504 h, greenhouse, scored after three weeks, read-out: % damage, Chenopodium; for pest or weed control at 250 g/ha: 250 g of ai./ha
Procedure: as §1

[4] = system: Polygonum; test: Post-emergence test; conditions: Polygonum, 504 h, greenhouse, scored after three weeks, read-out: % damage, Polygonum; for pest or weed control at 250 g/ha: 250 g of ai./ha
Procedure: as §1

[5] = system: Setaria; test: Post-emergence test; conditions: Setaria, 504 h, greenhouse, scored after three weeks, read-out: % damage, Setaria; for pest or weed control at 250 g/ha: 250 g of ai./ha
Procedure: as §1

[6] = system: Viola; test: Post-emergence test; conditions: 504 h, greenhouse, scored after three weeks, read-out: % damage, Viola; for pest or weed control at 250 g/ha: 250 g of ai./ha
Procedure: as §1

[7] = system: Wheat; test: Post-emergence test; conditions: greenhouse, scored after three weeks
Procedure: as §1

[8] = Triticum aestivum, 504 h, 250 g of ai./ha, read-out: % damage, Wheat

In the case of COc1ccc(C(C)Nc2nc(N)nc(C(C)F)n2)cc1 (stereo not shown) [Example 190], the activity against weeds [1] is reported as “strong activity”.

CSc1ccc(C(C)Nc2nc(N)nc(C(Cl)Cl)n2)cc1 (stereo not shown) [drawing 113] gave a pest or weed control at 1000 g/ha ([2]; 1000 g of ai./ha) of 100%, a pest or weed control at 1000 g/ha ([3]; 1000 g of ai./ha) of 100% and a pest or weed control at 1000 g/ha ([4]; 1000 g of ai./ha) of 80%. It also gave a pest or weed control at 1000 g/ha ([5]; 1000 g of ai./ha) of 90%, a pest or weed control at 1000 g/ha ([6]; 1000 g of ai./ha) of 100% and a plant injury at 1000 g/ha ([7]; Triticum aestivum, 504 h, 1000 g of ai./ha, read-out: % damage, Wheat) of 0%.

CSc1ccc(C(C)Nc2nc(N)nc(C(C)(Cl)Cl)n2)cc1 (stereo not shown) [drawing 114] gave a pest or weed control at 500 g/ha ([2]; 500 g of ai./ha) of 100%, a pest or weed control at 500 g/ha ([3]; 500 g of ai./ha) of 100% and a pest or weed control at 500 g/ha ([4]; 500 g of ai./ha) of 100%. It also gave a pest or weed control at 500 g/ha ([5]; 500 g of ai./ha) of 80%, a pest or weed control at 500 g/ha ([6]; 500 g of ai./ha) of 100% and a plant injury at 500 g/ha ([7]; Triticum aestivum, 504 h, 500 g of ai./ha, read-out: % damage, Wheat) of 0%.

CCc1nc(N)nc(NC(C)c2ccc(Cl)cc2)n1 (stereo not shown) [drawing 116] gave a pest or weed control at 250 g/ha [2] of 100%, a pest or weed control at 250 g/ha [3] of 100% and a pest or weed control at 250 g/ha [4] of 100%. The pest or weed control at 250 g/ha [5] was 100%, the pest or weed control at 250 g/ha [6] was 100% and the plant injury at 250 g/ha [7, 8] was 10%.

CC(Nc1nc(N)nc(C(F)C(F)(F)F)n1)c1ccc(Cl)cc1 (stereo not shown) [drawing 117] gave a pest or weed control at 250 g/ha [2] of 100%, a pest or weed control at 250 g/ha [3] of 100% and a pest or weed control at 250 g/ha [4] of 100%. The pest or weed control at 250 g/ha [5] was 95%, the pest or weed control at 250 g/ha [6] was 100% and the plant injury at 250 g/ha [7, 8] was 10%.

For COCc1nc(N)nc(NC(C)c2ccc(Cl)cc2)n1 (stereo not shown) [drawing 118], the pest or weed control at 250 g/ha [2] was 100%, the pest or weed control at 250 g/ha [3] was 100% and the pest or weed control at 250 g/ha [4] was 100%. The pest or weed control at 250 g/ha [5] was 80%, the pest or weed control at 250 g/ha [6] was 100% and the plant injury at 250 g/ha [7, 8] was 10%.

CC(Nc1nc(N)nc(C(Cl)Cl)n1)c1ccc(Cl)cc1 (stereo not shown) [drawing 119] showed a pest or weed control at 250 g/ha [2] of 100%, a pest or weed control at 250 g/ha [3] of 100% and a pest or weed control at 250 g/ha [4] of 100%. It also gave a pest or weed control at 250 g/ha [5] of 90%, a pest or weed control at 250 g/ha [6] of 100% and a plant injury at 250 g/ha [7, 8] of 10%.

CC(Cl)c1nc(N)nc(NC(C)c2ccc(Cl)cc2)n1 (stereo not shown) [drawing 120] gave a pest or weed control at 250 g/ha [2] of 100%, a pest or weed control at 250 g/ha [3] of 100% and a pest or weed control at 250 g/ha [4] of 100%. The pest or weed control at 250 g/ha [5] was 80%, the pest or weed control at 250 g/ha [6] was 100% and the “% damage, Wheat” value ([7]; 250 g of ai./ha) was 0%.

Compound CC(Nc1nc(N)nc(C(C)(Cl)Cl)n1)c1ccc(Cl)cc1 (stereo not shown) [drawing 121] has a pest or weed control at 250 g/ha [2] of 100%, a pest or weed control at 250 g/ha [3] of 100% and a pest or weed control at 250 g/ha [4] of 100%. The pest or weed control at 250 g/ha [5] was 80%, the pest or weed control at 250 g/ha [6] was 100% and the plant injury at 250 g/ha [7, 8] was 10%.
